Reference: patent EP4741392A1, “1H-PYRAZOLO[4,3-C]PYRIDINE COMPOUND, AND COMPOSITION THEREOF AND USE THEREOF” (Shenzhen TargetRx Co., Ltd., priority 2023, dated 2025)

What was measured:
Experiment in all cases: Kinase activity inhibition assay (HTRF TK Kit), selectivity
Assay type in all cases: biochemical
EGFR = biological target: T1, EGFR (Homo sapiens, UniProt P00533)
T1 construct: purchased Carna 08-115
Description: (§1) In this assay, the HTRF TK Kit (Catalog No. 62TK0PEC) provided by Cisbio was used to detect the inhibitory activity of compounds on BTK kinase, BTK T474I kinase and BTK C481 S kinase and the selectivity of compounds relative to EGFR, ITK and TEC kinases.
(§2) Reagents and consumables: BTK kinase (Invitrogen, Catalog No. PV3587), BTK C481S (Carna, Product No. 08-547), BTK T474I(SignalChem Product No. B10-12HH), ITK (Cama, Product No. 08-181), EGFR (Cama, Product No. 08-115), TEC (Carna, Product No. 08-182), HTRF-TK kit (Cisbio, Product No. 62TK0PEC), MgCl2 (Sigma, Product No. M1028), MnCl2 (Sigma, Product No. M1787), DTT (Sigma, Product No. D0632), ATP (Sigma, Product No. A7699-1g), DMSO (Sigma, Product No. D2650), 384-well plate (PE, Product No. 6008280).
(§3) The entire operation steps were carried out on ice, and the total reaction volume was 10µL. A compound (4µL), substrate and ATP (4µL), and kinase (2µL) were added in sequence to a 384-well plate, and the plate was shaken for 30 seconds. The mixture was reacted at room temperature for an appropriate time, and then the detection reagent was added. The resulting mixture was reacted at room temperature for 1 hour, and then the plate was assayed with a microplate reader. The specific steps were as follows: • a) a 1 × kinase buffer solution required for the kinase assay was calculated according to the amount of the test compound, and prepared as needed; • b) 2.5 × working concentration of a compound was prepared, 100-fold gradient concentration solutions of a compound were diluted by 40 × to the desired concentration, respectively, mixed well, and added to each well at 4 µL per well; • c) 5 × working concentration of the substrate and ATP were prepared, mixed in a ratio of 1:1 before being added to the 384-well plate, and added to each well at 4 µL per well; • d) 5 × working concentration of a kinase was prepared, 2 µL of which was added to each well; • e) the plate was shaken on a microplate shaker for 30 seconds, sealed with a sealing membrane, and the mixture was reacted at room temperature for an appropriate time; • f) 4 × working concentration of streptavidin XL-665 and TK antibody-cryptate compound were prepared, mixed in a ratio of 1:1 before being added to the 384-well plate, and added to each well at 10 µL per well; • g) the mixture was reacted at room temperature for 1 hour, and then the plate was read; • h) the wells with only substrate, ATP and 1% DMSO added but no kinase were blank control wells, and the wells with only substrate, ATP, 1% DMSO and kinase were positive control wells.
(§4) Readings: The values of 620 nm (cryptate) and 665 nm (XL665) were read with a BioTek Synerg Neo2 microplate reader, the ratio of 665/620 for each well was calculated, and the data were exported.
(§5) Data analysis: IC50 was calculated using GraphPad Prism 7.0 software.
(§6) The IC50 (half-maximal inhibitory concentration) of the compound was obtained using the following nonlinear fitting formula: Y = Bottom + (Top−Bottom)/(1+10^(∧)((LogIC50−X)*HillSlope)) [formula] • X: Log value of the compound concentration • Y: Inhibition rate (% inhibition) • Top: Maximum response • Bottom: Baseline response • HillSlope: Slope of the curve
(§7) The formula for calculating kinase inhibition rate (inhibition rate %) was: [formula]

ITK = biological target: T2, ITK (Homo sapiens, UniProt Q08881)
T2 construct: purchased Carna 08-181
T2 sequence (Q08881 1-620): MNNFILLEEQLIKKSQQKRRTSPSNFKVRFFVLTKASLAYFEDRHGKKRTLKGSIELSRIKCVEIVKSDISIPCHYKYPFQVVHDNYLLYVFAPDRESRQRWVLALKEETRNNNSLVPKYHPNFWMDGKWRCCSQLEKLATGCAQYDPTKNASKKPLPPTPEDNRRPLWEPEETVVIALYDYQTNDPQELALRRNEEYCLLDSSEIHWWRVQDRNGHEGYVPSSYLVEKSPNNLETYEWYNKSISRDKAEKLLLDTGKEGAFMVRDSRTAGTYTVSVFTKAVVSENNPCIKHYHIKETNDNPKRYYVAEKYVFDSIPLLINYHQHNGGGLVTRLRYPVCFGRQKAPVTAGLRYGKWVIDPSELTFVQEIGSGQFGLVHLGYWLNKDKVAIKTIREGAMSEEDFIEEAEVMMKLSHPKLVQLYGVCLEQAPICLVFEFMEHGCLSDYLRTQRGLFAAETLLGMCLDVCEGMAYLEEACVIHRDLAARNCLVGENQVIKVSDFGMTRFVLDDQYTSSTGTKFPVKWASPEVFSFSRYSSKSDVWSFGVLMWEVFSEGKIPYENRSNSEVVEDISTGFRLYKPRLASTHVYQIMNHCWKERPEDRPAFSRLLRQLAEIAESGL
Description: as §1, §2, §3, §4, §5, §6, §7

TEC = biological target: T3, TEC (Homo sapiens, UniProt P42680)
T3 construct: purchased Carna 08-182
T3 sequence (P42680 1-631): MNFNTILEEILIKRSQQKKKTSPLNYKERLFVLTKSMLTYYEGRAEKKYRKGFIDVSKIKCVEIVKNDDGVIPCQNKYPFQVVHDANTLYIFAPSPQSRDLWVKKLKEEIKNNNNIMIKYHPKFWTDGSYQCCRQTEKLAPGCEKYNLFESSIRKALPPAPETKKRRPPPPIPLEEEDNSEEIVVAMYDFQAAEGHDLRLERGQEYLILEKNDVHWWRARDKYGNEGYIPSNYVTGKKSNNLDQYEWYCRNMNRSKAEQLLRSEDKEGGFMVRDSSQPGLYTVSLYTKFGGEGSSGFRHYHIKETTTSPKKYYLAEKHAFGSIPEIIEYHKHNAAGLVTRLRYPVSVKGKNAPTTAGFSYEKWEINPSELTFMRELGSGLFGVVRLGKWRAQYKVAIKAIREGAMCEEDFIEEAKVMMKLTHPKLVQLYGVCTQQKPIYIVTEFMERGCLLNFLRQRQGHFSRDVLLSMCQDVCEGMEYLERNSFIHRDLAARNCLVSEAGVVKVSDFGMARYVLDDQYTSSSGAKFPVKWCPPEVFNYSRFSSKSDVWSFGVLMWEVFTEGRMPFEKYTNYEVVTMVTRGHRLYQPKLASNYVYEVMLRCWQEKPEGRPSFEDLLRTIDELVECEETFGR
Description: as §1, §2, §3, §4, §5, §6, §7

T1 sequence (P00533 669-1210 limits assumed): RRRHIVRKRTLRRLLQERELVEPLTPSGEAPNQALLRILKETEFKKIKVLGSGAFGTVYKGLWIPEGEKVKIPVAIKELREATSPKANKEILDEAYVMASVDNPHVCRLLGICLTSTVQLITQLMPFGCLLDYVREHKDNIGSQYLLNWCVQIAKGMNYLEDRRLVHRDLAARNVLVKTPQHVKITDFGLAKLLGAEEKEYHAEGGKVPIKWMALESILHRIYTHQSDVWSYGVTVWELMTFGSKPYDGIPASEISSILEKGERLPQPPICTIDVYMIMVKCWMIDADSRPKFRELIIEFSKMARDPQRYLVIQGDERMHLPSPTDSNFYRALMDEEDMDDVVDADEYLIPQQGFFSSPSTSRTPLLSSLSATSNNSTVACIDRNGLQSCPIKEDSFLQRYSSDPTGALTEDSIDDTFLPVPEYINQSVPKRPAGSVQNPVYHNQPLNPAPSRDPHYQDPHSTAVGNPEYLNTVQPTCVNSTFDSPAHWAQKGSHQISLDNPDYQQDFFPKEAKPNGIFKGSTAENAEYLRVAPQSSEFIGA

| SMILES | IC50 (EGFR) | IC50 (ITK) | IC50 (TEC) |
| --- | --- | --- | --- |
| COc1ccc(F)cc1C(=O)NCc1ccc(-c2nc(C(C)C(F)(F)F)cc3[nH]nc(N)c23)cc1 (single isomer, unassigned) [Example 2, N-(4-(3-amino-6-(1,1,1-trifluoropropan-2-yl)-1H-pyrazolo[4,3-c]pyridin-4-yl)benzyl)-5-fluoro-2-methoxybenzamide] | 50 to 500 nM | > 500 nM | 50 to 500 nM |
| COc1ccc(F)cc1C(=O)NCc1ccc(-c2nc(C(C)C(F)(F)F)cc3[nH]nc(N)c23)cc1 (single isomer, unassigned) [Example 3, N-(4-(3-amino-6-(1,1,1-trifluoropropan-2-yl)-1H-pyrazolo[4,3-c]pyridin-4-yl)benzyl)-5-fluoro-2-methoxybenzamide] | > 500 nM | > 500 nM | 50 to 500 nM |
| COc1ccc(F)cc1C(=O)NCc1ccc(-c2nc(C(C)C(F)(F)F)cc3[nH]nc(N)c23)cc1 (stereo not drawn) [Example 1, N-(4-(3-amino-6-(1,1,1-trifluoropropan-2-yl)-1H-pyrazolo[4,3-c]pyridin-4-yl)benzyl)-5-fluoro-2-methoxybenzamide] | 50 to 500 nM | > 500 nM | > 500 nM |
| COc1ccc(F)cc1C(=O)NCc1ccc(-c2nc(C(C)C(F)(F)F)c(-c3ccn(C)n3)c3[nH]nc(N)c23)cc1 (stereo not drawn) [Example 6, N-(4-(3-amino-7-(1-methyl-1H-pyrazol-3-yl)-6-(1,1,1-trifluoropropan-2-yl)-1H-pyrazolo[4,3-c]pyridin-4-yl)benzyl)-5-fluoro-2-methoxybenzamide] | 50 to 500 nM | > 500 nM | 5 to 50 nM |
| COc1ccc(F)cc1C(=O)NCc1ccc(-c2nc(C(C)C(F)(F)F)c(-c3ncccn3)c3[nH]nc(N)c23)cc1 (stereo not drawn) [Example 7, N-(4-(3-amino-7-(pyrimidin-2-yl)-6-(1,1,1-trifluoropropan-2-yl)-1H-pyrazolo[4,3-c]pyridin-4-yl)benzyl)-5-fluoro-2-methoxybenzamide] | 50 to 500 nM | > 500 nM | 5 to 50 nM |
| COc1ccc(F)cc1C(=O)NCc1ccc(-c2nc(C(C)C(F)(F)F)c(-c3cc(C)[nH]n3)c3[nH]nc(N)c23)cc1 (stereo not drawn) [Example 9, N-(4-(3-amino-7-(5-methyl-1H-pyrazol-3-yl)-6-(1,1,1-trifluoropropan-2-yl)-1H-pyrazolo[4,3-c]pyridin-4-yl)benzyl)-5-fluoro-2-methoxybenzamide] | 50 to 500 nM | > 500 nM | 50 to 500 nM |
| COc1ccc(F)cc1C(=O)NCc1ccc(-c2ncc(-c3ccccn3)c3[nH]nc(N)c23)cc1 [Example 15, N-(4-(3-amino-7-(pyridin-2-yl)-1H-pyrazolo[4,3-c]pyridin-4-yl)benzyl)-5-fluoro-2-methoxybenzamide] | 50 to 500 nM | > 500 nM | 5 to 50 nM |
| COc1ccc(F)cc1C(=O)NCc1ccc(-c2ncc(-c3ncccn3)c3[nH]nc(N)c23)cc1 [Example 17, N-(4-(3-amino-7-(pyrimidin-2-yl)-1H-pyrazolo[4,3-c]pyridin-4-yl)benzyl)-5-fluoro-2-methoxybenzamide] | > 500 nM | > 500 nM | 5 to 50 nM |
| COc1ccc(F)cc1C(=O)NCc1ccc(-c2ncc(-c3cnccn3)c3[nH]nc(N)c23)cc1 [Example 18, N-(4-(3-amino-7-(pyrazin-2-yl)-1H-pyrazolo[4,3-c]pyridin-4-yl)benzyl)-5-fluoro-2-methoxybenzamide] | > 500 nM | > 500 nM | 50 to 500 nM |
| COc1ccc(F)cc1C(=O)NCc1ccc(-c2ncc(-c3ccncn3)c3[nH]nc(N)c23)cc1 [Example 19] | > 500 nM | > 500 nM | 50 to 500 nM |
| COc1ccc(F)cc1C(=O)NCc1ccc(-c2ncc(-c3ccc(F)cn3)c3[nH]nc(N)c23)cc1 [Example 21, N-(4-(3-amino-7-(5-fluoropyridin-2-yl)-1H-pyrazolo[4,3-c]pyridin-4-yl)benzyl)-5-fluoro-2-methoxybenzamide] | > 500 nM | > 500 nM | 50 to 500 nM |

More lines, now with the values ahead:

| IC50 (EGFR) | IC50 (ITK) | IC50 (TEC) | SMILES |
| --- | --- | --- | --- |
| > 500 nM | > 500 nM | 50 to 500 nM | COc1ccc(F)cc1C(=O)NCc1ccc(-c2nc(C(C)C(F)(F)F)c(-c3ccn(C)n3)c3[nH]nc(N)c23)cc1 (single isomer, unassigned) [Example 6-1, N-(4-(3-amino-7-(1-methyl-1H-pyrazol-3-yl)-6-(1,1,1-trifluoropropan-2-yl)-1H-pyrazolo[4,3-c]pyridin-4-yl)benzyl)-5-fluoro-2-methoxybenzamide] |
| 50 to 500 nM | > 500 nM | 5 to 50 nM | COc1ccc(F)cc1C(=O)NCc1ccc(-c2nc(C(C)C(F)(F)F)c(-c3ccn(C)n3)c3[nH]nc(N)c23)cc1 (single isomer, unassigned) [Example 6-2, N-(4-(3-amino-7-(1-methyl-1H-pyrazol-3-yl)-6-(1,1,1-trifluoropropan-2-yl)-1H-pyrazolo[4,3-c]pyridin-4-yl)benzyl)-5-fluoro-2-methoxybenzamide] |
| > 500 nM | > 500 nM | 5 to 50 nM | COc1ccc(F)cc1C(=O)NCc1ccc(-c2nc(C(C)C(F)(F)F)c(-c3ncccn3)c3[nH]nc(N)c23)cc1 (single isomer, unassigned) [Example 7-1, N-(4-(3-amino-7-(pyrimidin-2-yl)-6-(1,1,1-trifluoropropan-2-yl)-1H-pyrazolo[4,3-c]pyridin-4-yl)benzyl)-5-fluoro-2-methoxybenzamide] |
| > 500 nM | > 500 nM | 50 to 500 nM | COc1ccc(F)cc1C(=O)NCc1ccc(-c2nc(C(C)C(F)(F)F)c(-c3ncccn3)c3[nH]nc(N)c23)cc1 (single isomer, unassigned) [Example 7-2, N-(4-(3-amino-7-(pyrimidin-2-yl)-6-(1,1,1-trifluoropropan-2-yl)-1H-pyrazolo[4,3-c]pyridin-4-yl)benzyl)-5-fluoro-2-methoxybenzamide] |
